“And” between values parts separate entries of the source, which are not always exact repeats. Identical values can stand only once.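 Protocol summary: plate cells (96-well), add compound at 5 concentrations, incubate 48 h, interpolate endpoints linearly. GI50: concentration for 50% inhibition of growth.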 The source made the active and inactive calls. No stated cut-off is given here; in the data, active = GI50 up to about 1.1 µM and inactive = higher.
Key:
Assay in all cases: NCI anticancer screen, dose series, 48 h
MDA-N = test system: MDA-N
DLD-1 = test system: DLD-1
KM-20L2 = test system: KM-20L2
LXFL 529 = test system: LXFL 529
M19-MEL = test system: M19-MEL
SNB-78 = test system: SNB-78
DMS-114 = test system: DMS-114
HOP-18 = test system: HOP-18
RXF 631 = test system: RXF 631

SMILES	GI50 (MDA-N)	GI50 (DLD-1)	GI50 (LXFL 529)	GI50 (SNB-78)	also measured
N#C/N=C1/c2ccccc2/C(=N/C#N)c2cc(CO)ccc21	36.6 µM (inactive)				
CCCCCCC(=O)C/C(=N/NC(N)=S)C(=O)NC1C2CC3CC(C2)CC1C3 (configuration not stated)		> 100 µM (inactive)	> 100 µM (inactive)	> 100 µM (inactive)	GI50 (KM-20L2): > 100 µM (inactive); GI50 (M19-MEL): > 100 µM (inactive)
CC12N=NNC1C(=O)NC2=O (configuration not stated)		> 100 µM (inactive)	> 100 µM (inactive)	> 100 µM (inactive)	GI50 (DMS-114): > 100 µM (inactive); GI50 (KM-20L2): > 100 µM (inactive); GI50 (M19-MEL): > 100 µM (inactive)
COC12C=C(C)C(CC1)CC2C(=O)O (configuration not stated)		> 100 µM (inactive)	> 100 µM (inactive)	> 100 µM (inactive)	GI50 (HOP-18): > 100 µM (inactive); GI50 (KM-20L2): > 100 µM (inactive); GI50 (M19-MEL): > 100 µM (inactive)
CCOC(=O)C(SCCO)C(C(=O)OCC)n1ccc(N)nc1=O (configuration not stated)	> 100 µM (inactive)				
CN(C(=O)c1ccc(Cl)cc1)C(=S)N1CCN(c2ccccc2)CC1	> 100 µM (inactive)				
Oc1cccc2ccc(Br)nc12	> 100 µM (inactive)				
C=C1C(=O)OC2C[C@H](C)C3CC(=O)C(C)=C3CC12 (some centres not stated)		7.38 µM (inactive)	10.6 µM (inactive)	16 µM (inactive)	GI50 (DMS-114): 15 µM (inactive); GI50 (KM-20L2): 14.8 µM (inactive); GI50 (M19-MEL): 13.2 µM (inactive)
CCCOC(=O)C1C2CCC(O2)C1C(=O)O (configuration not stated)	> 100 µM (inactive)				
CNc1ccc(Cl)cc1C(=O)N1CCC[C@H]1CO	> 100 µM (inactive)				
CCCCCCCC(=O)NS(=O)(=O)c1ccccc1	> 100 µM (inactive)				
O=C(O)C1CCCN1Cc1ccc2c(c1)OCO2 (configuration not stated)	> 100 µM (inactive)				
CC(=O)N1C(Nc2cccc3nc(C)ccc23)CCN1c1ccccc1 (configuration not stated)	> 10 µM (inactive)				
CNC(=S)N/N=C(\C)c1cc(OC)c(OC)cc1O	> 100 µM (inactive)				
Cc1ccc(Nc2n[nH]c(=S)s2)cc1	59.4 µM (inactive)				
CN(C)C(=S)C(Cl)(c1ccccc1)c1ccccc1	47.6 µM (inactive)				
CCN(CC)C(=O)N1CN(c2ccccc2)C2(CCN(CCCC3(c4ccc(F)cc4)OCCO3)CC2)C1=O	19.1 µM (inactive)				
Cc1cn(C2CC(O)C(Cn3nncc3Cn3ccc(=O)[nH]c3=O)O2)c(=O)[nH]c1=O (configuration not stated)	> 100 µM (inactive)				
CCC1CCN=C(Cn2cc(C)c(=O)[nH]c2=O)N1 (configuration not stated)	> 100 µM (inactive)				
CC1(C)OP(=O)(O)C=C1Sc1ccc([N+](=O)[O-])cc1[N+](=O)[O-]	> 100 µM (inactive)				
COc1ccc(CC(COS(=O)(=O)c2ccc(C)cc2)NS(=O)(=O)c2ccc(C)cc2)cc1 (configuration not stated)	19.6 µM (inactive)				
O=C(CCc1cc(-c2ccco2)n(-c2ccc([N+](=O)[O-])cc2[N+](=O)[O-])n1)Nc1ccccc1		> 100 µM (inactive)	> 100 µM (inactive)	> 100 µM (inactive)	GI50 (DMS-114): > 100 µM (inactive); GI50 (KM-20L2): > 100 µM (inactive); GI50 (M19-MEL): > 100 µM (inactive); GI50 (RXF 631): > 100 µM (inactive)

SMILES	GI50 (MDA-N)	GI50 (DLD-1)	GI50 (LXFL 529)	GI50 (SNB-78)	also measured
CC1(C)COC(c2c(-c3ccccc3)noc2C[S+]([O-])c2ccccc2)=N1 (configuration not stated)		> 100 µM (inactive)	30.2 µM (inactive)	7.48 µM (inactive)	GI50 (DMS-114): 21.9 µM (inactive); GI50 (HOP-18): 24.9 µM (inactive); GI50 (KM-20L2): 46.3 µM (inactive); GI50 (M19-MEL): 45.1 µM (inactive)
CC(C)CCCC(C)[C@H]1CCC2[C@@H]3CCC4Cc5nc6c(nc5C[C@]4(C)C3CC[C@@]21C)CC1CC[C@@H]2C(CC[C@@]3(C)C2CC[C@@H]3C(C)CCCC(C)C)[C@@]1(C)C6 (some centres not stated)	> 100 µM (inactive)				
COc1ccc(CN(CCN(C)C)c2ccccn2)cc1.Cn1c(=O)c2[nH]c(Br)nc2n(C)c1=O		> 100 µM (inactive)	> 100 µM (inactive)	> 100 µM (inactive)	GI50 (DMS-114): > 100 µM (inactive); GI50 (HOP-18): > 100 µM (inactive); GI50 (KM-20L2): > 100 µM (inactive)
COc1ccc2c(c1)c(Cc1c(C)n(C)c3ccc(OC)cc13)c(C)n2C		> 100 µM (inactive)	> 100 µM (inactive)	> 100 µM (inactive)	GI50 (DMS-114): > 100 µM (inactive); GI50 (HOP-18): > 100 µM (inactive); GI50 (KM-20L2): > 100 µM (inactive); GI50 (M19-MEL): > 100 µM (inactive)
O=C(CC1Sc2ccccc2NC1=O)Nc1cccc(Cl)c1 (configuration not stated)		48.4 µM (inactive)	42.1 µM (inactive)	47.9 µM (inactive)	GI50 (DMS-114): 34.2 µM (inactive); GI50 (KM-20L2): 38.2 µM (inactive); GI50 (M19-MEL): 81.5 µM (inactive)
Nc1nc(Br)nc2ncn(C3CC(O)C(CO)O3)c12 (configuration not stated)	> 68.7 µM (inactive)				
CCOC(=O)NC(=O)c1cn(CCOC(=O)NCCCCCCNC(=O)OCCn2cc(C(=O)NC(=O)OCC)c(=O)[nH]c2=O)c(=O)[nH]c1=O		> 100 µM (inactive)	> 100 µM (inactive)	> 100 µM (inactive)	GI50 (DMS-114): > 100 µM (inactive); GI50 (HOP-18): > 100 µM (inactive); GI50 (KM-20L2): > 100 µM (inactive); GI50 (M19-MEL): > 100 µM (inactive)
CC(C)[C@@H]1ON1C(C)c1ccccc1 (some centres not stated)	> 100 µM (inactive)				
O=c1[nH]c(=O)n(C2OC(CO)C(O)C2O)cc1OCCc1ccccc1 (configuration not stated)	> 100 µM (inactive)				
CN1C(=O)c2ccccc2OC12C=Cc1ccc(O)cc1O2 (configuration not stated)	31 µM (inactive)				
C=CCN1CN(C2CCCCC2)CSC1=S	2.16 µM (inactive)				
O=C(NN1C(=O)C(Cl)C1c1c(O)ccc2ccccc12)c1ccccc1O (configuration not stated)		> 100 µM (inactive)	> 100 µM (inactive)	> 100 µM (inactive)	GI50 (DMS-114): > 100 µM (inactive); GI50 (HOP-18): > 100 µM (inactive); GI50 (M19-MEL): > 100 µM (inactive)
Cc1cn(CC2=NCCN2)c(=O)[nH]c1=O	> 100 µM (inactive)				
CC1CC(C)CN(S(=O)(=O)c2cc(Cl)c(Oc3ccc([N+](=O)[O-])cc3Cl)c(Cl)c2)C1 (configuration not stated)	> 100 µM (inactive)				
Cc1cc2c(C)nn(Cc3ccc(Cl)cc3Cl)c2c(C#N)c1C		> 100 µM (inactive)	82.4 µM (inactive)	> 100 µM (inactive)	GI50 (HOP-18): > 100 µM (inactive); GI50 (KM-20L2): > 100 µM (inactive); GI50 (M19-MEL): > 100 µM (inactive)
CCN(CC)C(=S)SC [METHYLDIETHYL CARBAMODITHIOATE]	> 100 µM (inactive)				
CN1CCc2c1nc(-c1ccc(Cl)cc1)c1c2N(C)CC1		7.66 µM (inactive)	20.1 µM (inactive)	28.7 µM (inactive)	GI50 (DMS-114): 10.8 µM (inactive); GI50 (HOP-18): < 0.01 µM (active); GI50 (KM-20L2): 0.514 µM (active); GI50 (M19-MEL): 9.14 µM (inactive)
COc1ccc(-n2c(N)c(C#N)[nH]c2=O)cc1	> 10 µM (inactive)				
CC(=O)Nc1ccc2cc(C)c(O)nc2n1	> 100 µM (inactive)				
CC1=C(O)C(=O)C2C(=O)C1C(C)C2c1ccc(Cl)cc1 (configuration not stated)		> 100 µM (inactive)	> 100 µM (inactive)	> 100 µM (inactive)	GI50 (M19-MEL): > 100 µM (inactive); GI50 (RXF 631): > 100 µM (inactive)
O/N=N/c1ccccn1.OCC1OC2OC3C(CO)OC(OC4C(CO)OC(OC5C(CO)OC(OC6C(CO)OC(OC7C(CO)OC(OC1C(O)C2O)C(O)C7O)C(O)C6O)C(O)C5O)C(O)C4O)C(O)C3O (configuration not stated)	19.9 µM (inactive)				
COC(=O)[C@@]1(C(C)CC(=O)O)CCCCC1=O (some centres not stated)		> 100 µM (inactive)	> 100 µM (inactive)	> 100 µM (inactive)	GI50 (DMS-114): 82.8 µM (inactive); GI50 (HOP-18): > 100 µM (inactive); GI50 (KM-20L2): > 100 µM (inactive); GI50 (M19-MEL): > 100 µM (inactive)

SMILES	GI50 (MDA-N)	GI50 (DLD-1)	GI50 (LXFL 529)	GI50 (SNB-78)	also measured
O=C1CCC2(c3ccc(F)cc3)Nc3ncccc3N12 (configuration not stated)		> 100 µM (inactive)	> 100 µM (inactive)	> 100 µM (inactive)	GI50 (KM-20L2): > 100 µM (inactive); GI50 (M19-MEL): > 100 µM (inactive)
O=C(CO)CC(=O)C(=O)Nc1cccc(C(F)(F)F)c1		> 100 µM (inactive)	> 100 µM (inactive)		GI50 (KM-20L2): > 100 µM (inactive)
Cc1ccc(C(=O)Nc2ccc(CP(=O)(O)O)cc2)cc1NC(=O)c1cccc(N)c1	> 100 µM (inactive)				
CCNc1cc2c(cc1O)CC[C@@H]1[C@@H]2CC[C@]2(C)[C@@H](O)CC[C@@H]12	0.232 µM (active)				
Nc1nc2[nH]cnc2c(=O)[nH]1		> 100 µM (inactive)	> 100 µM (inactive)	> 100 µM (inactive)	GI50 (HOP-18): > 100 µM (inactive); GI50 (KM-20L2): > 100 µM (inactive); GI50 (M19-MEL): > 100 µM (inactive)
COc1cc(OC)nc(NC(=O)NS(=O)(=O)c2cccc3ncn(C)c(=O)c23)n1	> 100 µM (inactive)				
COC(=O)CCC(=O)Nc1cccc(C(F)(F)F)c1		> 100 µM (inactive)	> 100 µM (inactive)	> 100 µM (inactive)	GI50 (DMS-114): > 100 µM (inactive); GI50 (HOP-18): > 100 µM (inactive); GI50 (KM-20L2): > 100 µM (inactive); GI50 (M19-MEL): > 100 µM (inactive)
O=S(=O)(O)c1cc(/N=N/c2c(O)ccc3ccccc23)ccc1/C=C/c1ccc(/N=N/c2c(O)ccc3ccccc23)cc1S(=O)(=O)O	> 100 µM (inactive)				
CCCCc1ccc(-n2sc3ncc([N+](=O)[O-])cc3c2=O)cc1	14.8 µM (inactive)				
CC(=O)O[C@H]1CC2C(C3CC[C@H](C(C)CCC(N)=O)[C@]31C)[C@H](OC(C)=O)C[C@@H]1CC3(CC[C@]21C)OOC1(CCC(C)CC1)OO3 (some centres not stated)	1.87 µM (inactive) and 2.07 µM (inactive)				
CCOC(=O)c1c(C)n(-c2ccc(C)cc2)c2c1cc(O)c1[nH]c3c(c12)CCCC3	20.6 µM (inactive)				
CCN(CC)c1ncnc2c1ncn2CCNC(CO)(CO)CO	> 100 µM (inactive)				
Cc1cc(Oc2cnc(=O)[nH]c2)cs1	> 100 µM (inactive)				
COc1ccc2c(C)c(Oc3c(Cl)c(Cl)c(O)c(C#N)c3C#N)oc2c1	> 100 µM (inactive)				
N#Cc1nc(-c2ccco2)oc1N	> 10 µM (inactive)				
Oc1ccc(-c2nc(-c3ccc4ccccc4n3)c(-c3ccc(F)cc3)[nH]2)cc1	11.9 µM (inactive)				
CCOC(=O)c1c(CN2CCOCC2)n(Cc2ccccc2)c2c1cc(O)c1nc(C)c(C)nc12	72.8 µM (inactive)				
C[C@@]1(CO)[C@H](O)CC[C@@]2(C)[C@H]1CC[C@H]1C[C@@H]3C[C@@]12CC[C@@]3(O)COC(=O)CN	16.9 µM (inactive)		> 100 µM (inactive)		GI50 (HOP-18): > 76 µM (inactive)
O=C1OC(c2ccccc2)=N/C1=C/NC(Cc1c[nH]cn1)C(=O)O (configuration not stated)		> 100 µM (inactive)	> 100 µM (inactive)	> 100 µM (inactive)	GI50 (DMS-114): > 100 µM (inactive); GI50 (KM-20L2): > 100 µM (inactive); GI50 (M19-MEL): > 100 µM (inactive)
CCCCCC/C=C1\CCC(CN2CCOCC2)C1=O (configuration not stated)		10.5 µM (inactive)	3.3 µM (inactive)	21.8 µM (inactive)	GI50 (DMS-114): 17.3 µM (inactive); GI50 (HOP-18): 0.807 µM (active); GI50 (KM-20L2): 20.2 µM (inactive)

From ChEMBL document CHEMBL1201862, “PubChem BioAssay data set” (2004)
